The values below come from publication PMC11836371, “Virtual fragment screening for DNA repair inhibitors in vast chemical space” (Nature Communications, 2025).

“And” between values parts separate entries of the source, which are not always exact repeats. Equal values may be shown once. Read-outs that look alike come from different tables or passages of the source.

One series concerns the target human OGG1 enzyme (Homo sapiens, UniProt O15527). Nature of the series: Differential scanning fluorimetry (DSF) thermal shift assay. In kind it is binding. Set-up: ∆Tm (K): unit of the concentration uncertain. The following applies: for ΔTm: concentration not given. The method, then: The temperature was increased from 20 °C to 85 °C with 10 readings/degree. Tm values were calculated using an excel template and fitting to the Boltzmann equation in Prism v.6.07 (GraphPad Software).
Background: DSF heats the sample and reads unfolding from a dye or from intrinsic fluorescence.

In another series the target is T1, OGG1-GFP in U2OS cells (Homo sapiens, UniProt O15527).
T1 construct: expressed in transfected cells
T1 sequence (O15527 whole entry): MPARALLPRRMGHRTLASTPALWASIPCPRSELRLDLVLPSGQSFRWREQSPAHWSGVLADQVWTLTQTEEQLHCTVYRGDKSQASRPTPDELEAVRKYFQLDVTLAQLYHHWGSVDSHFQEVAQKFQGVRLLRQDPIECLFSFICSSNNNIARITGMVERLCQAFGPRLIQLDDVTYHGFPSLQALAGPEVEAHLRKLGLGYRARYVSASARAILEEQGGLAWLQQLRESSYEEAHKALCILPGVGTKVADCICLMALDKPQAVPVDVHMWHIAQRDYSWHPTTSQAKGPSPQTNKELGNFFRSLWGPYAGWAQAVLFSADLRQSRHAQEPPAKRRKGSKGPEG
As to the kind of experiment: Laser microirradiation assay (OGG1-GFP recruitment to DNA damage sites). In kind it is cell-based. The following applies: for OGG1-GFP recruitment to DNA damage sites, intensity normalised to time 0 (Figure3E): single-cell replicate traces.

A short description of series [1]: Cell viability assay (resazurin), BJhTERT non-transformed control. Format: cell-based. The following applies: human, BJhTERT; for viability at 72 h, 5.12861e-09 M: Log conc. (M) 5.12861e-9; for viability at 72 h, 1.51356e-08 M: Log conc. (M) 1.51356e-8; for viability at 72 h, 4.57088e-08 M: Log conc. (M) 4.57088e-8; for viability at 72 h, 1.38038e-07 M: Log conc. (M) 1.38038e-7; for viability at 72 h, 4.0738e-07 M: Log conc. (M) 4.0738e-7; for viability at 72 h, 1.23027e-06 M: Log conc. (M) 1.23027e-6; for viability at 72 h, 3.31131e-05 M: Log conc. (M) 3.31131e-5; for viability at 72 h, 0.0001 M: Log conc. (M) 0.0001; for viability at 72 h, 100 µM: two independent experiments, read-out: percentage cell viability. In a few lines:
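Cells in FBS-supplemented media exposed to compound for 72 h at 37 °C, 5% CO2, then resazurin added to 10 µg/mL final. Viability expressed relative to untreated control wells; EC50 derived by curve fitting.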
(The colour change of resazurin is a common sign of viable cells or microbes.)

Series [2] can be described thus: Plasma protein binding in human plasma (RED). Particulars: plasma (50% plasma, 50% isotonic buffer), pH 7.4, read-out: Protein plasma binding, fu (%). Format: in vitro ADME. The method, then:
Pooled human plasma was provided by Uppsala Academic Hospital and was collected from two donors (non-smoking) (citric acid). In brief, 0.2 mL of the plasma (50% plasma, 50% isotonic buffer) test solution (typically 10 µM final compound concentration) was transferred to the membrane tube in the RED insert (ThermoFisher Scientific). 0.35 ml isotonic phosphate buffer pH 7.4 was added to the other side of the membrane. The 96-well base plate was then sealed with an adhesive plastic film (Scotch Pad) to prevent evaporation. The sample was incubated with rapid rotation (>>900 rpm) on a Kisker rotational incubator at 37 °C for 4 h to achieve equilibrium. Prior to LC-MS/MS analysis the plasma and buffer samples were treated with the addition of Methanol (1:3) containing Warfarin as an internal standard to precipitate proteins. The standard curve was created using the plasma standard. The plate was then sealed, and centrifuged and the supernatant was analyzed by liquid chromatography coupled to triple quadrupole mass spectrometry (LC-MS/MS).

Series [3] in a line: Caco-2 cell permeability assay. In kind it is in vitro ADME. Particulars: human, Caco-2, pH 7.4; for Papp A→B at 60 min, 10 µM: read-out: Papp AB (10–6 cm/s); for Papp B→A at 60 min, 10 µM: read-out: Papp BA (10–6 cm/s). The method, then: Prior to the experiment a drug solution of 10 µM was prepared and warmed to 37 °C. The Caco-2 filters were washed with pre-warmed HBSS prior to the experiment, and thereafter the experiment was started by applying the donor solution on the apical or basolateral side. The transport experiments were carried out at pH 7.4 in both the apical and basolateral chamber. The experiments were performed at 37 °C and with a stirring rate of 500 rpm. The receiver compartment was sampled at 15, 30, and 60 min, and at 60 min also a final sample from the donor chamber was taken to calculate the mass balance of the compound. The samples (100 µL) were transferred to a 96-well plate containing 100 µL methanol and Warfarin as IS and was sealed until analyzed by liquid chromatography coupled to triple quadrupole mass spectrometry (LC-MS/MS).

A further series deals with HCT116 cells. Nature of the series: Cancer cell viability assay (resazurin), HCT116. Format: cell-based. Particulars: two independent experiments; for percentage cell viability: HCT116, 100 μM, 100 µM. The method, then: Three different cancer cell lines A2780 (ovarian cancer, ECACC 93112519), A549 (lung cancer, ATCC 60150896) and HCT116 (colon cancer, ATCC CCL-247), and one immortalized fibroblast cell line (BJhTERT) as control, were seeded in black/clear 384-well plates (Corning #3764), 50 µL/well, containing 11 concentrations, nano-dispensed, dose-response curves of the test compounds. A2780, HCT116, and HEK293T cell lines were authenticated with STR profiling, frozen down, and these stocks were used in experiments. The A2780 cells were cultured in RPMI 1640, the A549 and BJhTERT cells in DMEM, and the HCT116 cells in McCoys 5 A medium. All media were supplemented with 10% FBS and 1% P/S. All cell culture media, additives, and reagents were purchased from Thermo Fisher Scientific. The cell plates were incubated 72 hours in a humidified incubator at 37 °C with 5% CO2, after which resazurin (Sigma-Aldrich), 10 µL/well, was added to a final concentration of 10 µg/mL. The plates were incubated for 6 hours with resazurin followed by fluorescence readings in a Sense plate reader (Hidex), resorufin protocol (ex 544 nm/em 595 nm). The cell viability was calculated compared to untreated control wells and the EC50 values were determined in XLfit (IDBS).

Setting [4] is: BJhTERT immortalized fibroblast cells, read-out: cell viability, cytotoxicity curve (Figure3H).
The mark [5] stands for this setting: read-out: cell viability, cytotoxicity curve (Figure3H).

Chain of human OGG1 enzyme (O15527 whole entry): as above

Regarding `O=C(Nc1ccc(I)cc1)N1CCC(n2c(=O)[nH]c3c(Br)cccc32)CC1` [TH5487, reference compound], the “∆Tm (K)” value on human OGG1 enzyme (495 µM) is reported as 4.3 K. For the same compound, at human OGG1 enzyme (495 (unit uncertain) as printed in sheet footnote), the “∆Tm (K)” value worked out at 4.3 K. The ΔTm on human OGG1 enzyme worked out at 4.3 K. Besides, the “OGG1-GFP recruitment to DNA damage sites, intensity normalised to time 0 (Figure3E)” value on OGG1-GFP in U2OS cells (10uM, time 14 s) is 1.22 (3×) and 1.25 and 1.18 (2×) and 1.31 and 1.24 and 1.32 (2×) and 1.15 and 1.27 and 1.19 (2×) and 1.28. On OGG1-GFP in U2OS cells (10uM, time 16 s), the “OGG1-GFP recruitment to DNA damage sites, intensity normalised to time 0 (Figure3E)” value is 1.24 and 1.28 and 1.23 (2×) and 1.18 (2×) and 1.34 and 1.25 and 1.32 and 1.19 and 1.29 and 1.2 and 1.22 and 1.31 and 1.3. The “OGG1-GFP recruitment to DNA damage sites, intensity normalised to time 0 (Figure3E)” value at OGG1-GFP in U2OS cells (10uM, time 18 s) was 1.25 (2×) and 1.31 (2×) and 1.24 and 1.21 and 1.35 (2×) and 1.26 and 1.18 and 1.2 and 1.3 and 1.22 and 1.23 and 1.33. Moreover, the “OGG1-GFP recruitment to DNA damage sites, intensity normalised to time 0 (Figure3E)” value on OGG1-GFP in U2OS cells (10uM, time 20 s) was 1.26 and 1.31 (2×) and 1.24 (3×) and 1.2 and 1.35 and 1.29 and 1.37 and 1.16 and 1.19 and 1.27 and 1.36 and 1.33. Moreover, the “OGG1-GFP recruitment to DNA damage sites, intensity normalised to time 0 (Figure3E)” value at OGG1-GFP in U2OS cells (10uM, time 22 s) is 1.27 and 1.32 and 1.28 (3×) and 1.2 and 1.36 and 1.37 (2×) and 1.18 and 1.22 (2×) and 1.34 and 1.25 and 1.35. The “OGG1-GFP recruitment to DNA damage sites, intensity normalised to time 0 (Figure3E)” value on OGG1-GFP in U2OS cells (10uM, time 24 s) is 1.29 (2×) and 1.32 and 1.25 (2×) and 1.21 and 1.37 (2×) and 1.39 and 1.18 and 1.22 and 1.35 and 1.3 and 1.24 and 1.36. Besides, the “OGG1-GFP recruitment to DNA damage sites, intensity normalised to time 0 (Figure3E)” value at OGG1-GFP in U2OS cells (10uM, time 26 s) is 1.29 (2×) and 1.32 and 1.28 and 1.21 and 1.38 (2×) and 1.4 and 1.19 and 1.22. For the same compound, the viability – broadly, a read-out of living cells in per cent, often relative to untreated cells – at 72 h, 1.69824e-09 M in series [1] (BJhTERT immortalized fibroblast cells, Log conc. (M) 1.69824e-9, read-out: cell viability, cytotoxicity curve (Figure3H)) amounted to 74.4%. Besides, in series [1] (setting [4]), the viability at 72 h, 5.12861e-09 M turned out to be 72.6%; the viability at 72 h, 1.51356e-08 M stood at 78%; the viability at 72 h, 4.57088e-08 M is 84%; the viability at 72 h, 1.38038e-07 M stood at 81.8%. In series [1] (setting [4]), the viability at 72 h, 4.0738e-07 M was found to be 80.5%; the viability at 72 h, 1.23027e-06 M was determined as 81.8%; the viability at 72 h, 3.31131e-05 M came out at 47%; the viability at 72 h, 0.0001 M was 5.37%. In series [2], the fraction unbound at 4 h, 10 µM came out at 0.001. Besides, in series [3], the Papp A→B at 60 min, 10 µM is 4.16 ×10⁻⁶ cm/s and the Papp B→A at 60 min, 10 µM came out at 4.83 ×10⁻⁶ cm/s.
As to `Nc1nn(-c2ccc(CC(=O)Nc3noc4c3CCCC4)cc2)c2ccccc12` [compound 11], the percentage cell viability in the series on HCT116 cells is on record as 20.29%. Moreover, the viability at 100 µM in the series with HCT116 cells (Homo sapiens, HCT-116, HCT116, 100 μM, read-out: percentage cell viability) was found to be 20%. Further, in series [1], the viability at 72 h, 100 µM was determined as 38.2%. Moreover, in series [1] (setting [5]), the viability at 72 h, 5.12861e-09 M worked out at 94.3%; the viability at 72 h, 1.51356e-08 M is 81.4%; the viability at 72 h, 4.57088e-08 M worked out at 92%; the viability at 72 h, 1.38038e-07 M came out at 101%. Further, in series [1] (setting [5]), the viability at 72 h, 4.0738e-07 M was determined as 79.8%; the viability at 72 h, 1.23027e-06 M worked out at 87.1%; the viability at 72 h, 3.31131e-05 M was found to be 71%; the viability at 72 h, 0.0001 M turned out to be 38.2%. Also, the viability at 72 h, 3.71535e-06 M in series [1] (Log conc. (M) 3.71535e-6, read-out: cell viability, cytotoxicity curve (Figure3H)) worked out at 84%. For the same compound, the viability at 72 h, 1.12202e-05 M in series [1] (Log conc. (M) 1.12202e-5, read-out: cell viability, cytotoxicity curve (Figure3H)) came to 89.3%.
As to `Cc1nc(-c2cc(F)c(CC(=O)Nc3noc4c3CCCC4)c(F)c2)c(C)[nH]1` [compound 23], the “∆Tm (K)” value on human OGG1 enzyme (99 μM) and on human OGG1 enzyme (99 (unit uncertain) as printed in sheet footnote) was 9.0 ± 0.2 K throughout. Moreover, the ΔTm at human OGG1 enzyme turned out to be 9.0 K. The “OGG1-GFP recruitment to DNA damage sites, intensity normalised to time 0 (Figure3E)” value on OGG1-GFP in U2OS cells (10uM, time 14 s) is 1.25 (2×) and 1.24 (4×) and 1.21 and 1.14 and 1.19 (2×) and 1.22 (2×) and 1.23 and 1.26 and 1.2; at OGG1-GFP in U2OS cells (10uM, time 16 s) it was 1.27 (3×) and 1.26 (2×) and 1.29 (2×) and 1.23 (4×) and 1.12 and 1.19 and 1.18 and 1.24; on OGG1-GFP in U2OS cells (10uM, time 18 s) it was 1.27 (2×) and 1.28 (3×) and 1.24 (3×) and 1.15 and 1.21 and 1.19 and 1.25 (3×) and 1.31; on OGG1-GFP in U2OS cells (10uM, time 20 s), 1.3 and 1.29 and 1.33 and 1.26 and 1.15 and 1.24 and 1.21 and 1.27 (2×) and 1.28; on OGG1-GFP in U2OS cells (50uM, time 14 s), 1.18 (2×) and 1.14 and 1.21 (4×) and 1.2 (3×) and 1.12 and 1.19 (2×) and 1.22 and 1.23; at OGG1-GFP in U2OS cells (50uM, time 16 s) it was 1.19 and 1.14 and 1.22 (4×) and 1.15 and 1.21 (3×) and 1.2 (2×) and 1.24 and 1.25 and 1.23. In addition, the “OGG1-GFP recruitment to DNA damage sites, intensity normalised to time 0 (Figure3E)” value on OGG1-GFP in U2OS cells (50uM, time 18 s) was 1.2 (3×) and 1.15 (2×) and 1.22 (3×) and 1.21 (2×) and 1.24 (3×) and 1.23 and 1.27. Also, at OGG1-GFP in U2OS cells (50uM, single cells, U2OS), the “Maximum Intensity (OGG1-GFP at damage sites)” value was 1.31 and 1.3 and 1.27 and 1.34 and 1.37 and 1.28 and 1.23 and 1.32. Moreover, the “recruitment of OGG1-GFP to laser-induced DNA damage sites” value on OGG1-GFP in U2OS cells (U2OS cells) is recorded as “impaired”. In addition, in the series with HCT116 cells, the percentage cell viability is 61.96% and 97.34%. In addition, in series [1] (BJhTERT immortalized fibroblast cells), the viability at 72 h, 100 µM came out at 67.4%. Further, the fraction unbound at 4 h, 10 µM in series [2] worked out at 0.048. Further, the Papp A→B at 60 min, 10 µM in series [3] worked out at 6.13 ×10⁻⁶ cm/s. Also, the Papp B→A at 60 min, 10 µM in series [3] was 94.2 ×10⁻⁶ cm/s.
